# Experimental data: publication PMC10945332, “Precision peptide theranostics: developing N- to C-terminus optimized theranostics targeting cholecystokinin-2 receptor” (Theranostics, 2024)
# Like-named read-outs stand apart in the source and are kept apart here. Where a SMILES comes first, the peptide text is derived from it. [ ]: non-standard residue; d: D form. The star is where a group is joined. DOTA = O=C(O)CN1CCN(CC(=O)O)CCN(CC(=O)*)CCN(CC(=O)O)CC1; 1Nal = N[C@@H](Cc1cccc2ccccc12)C(=O)O; NMeF = CN[C@@H](Cc1ccccc1)C(=O)O; NMeNle = CCCC[C@H](NC)C(=O)O; Sar = CNCC(=O)O
# Legend:
# [1] = system: CCK2R; parameters: method as in PMID 33826325; settings: cited from earlier work
# [2] = biological target: T1, human CCK2R (Homo sapiens, UniProt P32239); assay: Competitive binding against [177Lu]Lu-DOTA-CP04 in A431-CCK2R cells; settings: linear peptide vs its Ga-DOTA form
# T1 construct: stably transfected to over-express the human full-length CCK2R (A431-CCK2R); expressed in transfected cells
# T1 sequence (P32239 1-447): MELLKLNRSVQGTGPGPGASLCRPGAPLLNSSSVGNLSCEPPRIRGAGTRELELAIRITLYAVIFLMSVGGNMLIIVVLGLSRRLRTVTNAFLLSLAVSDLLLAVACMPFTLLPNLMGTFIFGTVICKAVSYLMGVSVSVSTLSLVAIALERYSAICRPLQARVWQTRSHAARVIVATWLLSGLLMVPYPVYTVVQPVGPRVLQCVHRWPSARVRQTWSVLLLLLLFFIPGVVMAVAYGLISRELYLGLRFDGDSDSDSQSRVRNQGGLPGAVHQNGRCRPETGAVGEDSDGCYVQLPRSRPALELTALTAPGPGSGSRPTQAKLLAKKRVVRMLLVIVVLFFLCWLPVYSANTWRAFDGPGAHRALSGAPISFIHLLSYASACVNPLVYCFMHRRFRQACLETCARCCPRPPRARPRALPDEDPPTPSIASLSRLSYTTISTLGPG
# Description: Materials and Methods: Biology […]
# In Vitro CCK2R-Ligand Competitive Binding Assays
# All CCK2R binding experiments were conducted using A431 (human epidermoid carcinoma) […]
# cells stably transfected to over-express the human full-length CCK2R (A431-CCK2R) (gifted […]
# by Dr. Elisabeth von Guggenberg, Medizinische Universität Innsbruck).[41] As a negative […]
# control, A431 cells stably transfected with an empty vector were analysed simultaneously […]
# (A431-EV). All A431 cells were maintained in DMEM (Gibco, Australia) media supplemented […]
# with 10% foetal calf serum and 250 µg/mL G418 as described previously.[32]
# The affinity of all peptides for the CCK2R was evaluated using competitive binding assays […]
# Briefly, 48 hours before the experiment […]
# cells were plated at a density of 300,000 cells per well in 12 well plates. On the day of the […]
# experiment, linear peptides were diluted in DMEM supplemented with 1% foetal calf serum to […]
# DOTA-CP04 was added to each dilution. Cells were washed twice in ice-cold binding buffer […]
# (DMEM supplemented with 1% foetal calf serum) and resuspended in 1 mL of the pre-prepared […]
# peptide mix before being incubated at room temperature for 1 hour. Post-incubation the media […]
# was removed and kept for analysis (unbound fraction) and the cells were washed twice in ice- […]
# cold PBS which was pooled with the unbound fraction. Finally, 1 M NaOH (150µL) was added […]
# to the wells and allowed to incubate for 5 min before lysates were collected (bound fraction).
# A small volume of lysate was kept aside to determine protein concentration using the Pierce® BCA protein assay kit (Thermo Fisher, Australia). All samples were analysed using the Perkin […]
# normalised according to protein concentration. Half maximal inhibitory concentration (IC50) was determined using nonlinear regression calculated using Gr aphPad Prism Software (GraphPad Software, California, USA). […]
# [3] = mouse, in vivo
# Description: (§1) In order to assess these promising ligands as potential theranostics, the library of [^68Ga]Ga-DOTA-peptides was evaluated using static small animal PET imaging and quantifying biodistribution studies. This study was performed to investigate tumor uptake as well as the accumulation of radioligands in other organs. Mice bearing A431-CCK2R tumors were imaged at 1- and 2 hours post tracer injection, and tracer biodistribution was evaluated at the 1 hour and 2.5 hour time points to quantify tumor uptake and retention. […]
# (§2) Small Animal PET Imaging and Biodistribution Studies
# (§3) Female NSG mice (age 11-14 weeks) were sourced from Animal Resources Centre, (Canning Vale, Western Australia) and were inoculated subcutaneously on the right flank with 1-3 x 106 […]
# (§4) A431-CCK2R cells in PBS:Matrigel (1:1). […]
# (§5) Mice were assigned to imaging and/or biodistribution groups (tumour volumes: 119-327 mm3).
# (§6) The respective 68Ga labelled tracer (1.63–3.81 MBq, 170µL, 13.7–14.2 pmoles) containing vehicle solution (75µL, DMSO:Tween 80: water, 2:2:6 v/v/v) was then administered to mice intravenously via tail vein injection. Three mice were euthanized for biodistribution 1 hour post injection (n=3) and selected tissues were excised, weighed, and counted using a Capintec (Captus 4000e) gamma counter. Three mice were anaesthetised using 1.5% isoflurane and imaged at 1 hour (n=3) and 2 hours (n=3) with a G8 Small Animal PET/CT scanner (Perkin […]
# (§7) Elmer/Sofie Biosciences). A 10 min static PET scan was acquired, followed immediately by a CT scan (Supplementary Data, pS51–S55). PET images were acquired using the G8 acquisition engine software and reconstructed using a 3D maximal likelihood and expectation maximization (ML-EM) algorithm. PET images were analysed using VivoQuant software, version 3.0 (inviCRO Imaging Services and Software) to quantify maximum standardised uptake value in regions of interest (SUVmax). Background regions for imaging experiments were calculated by quantitating mean standardised uptake value (SUVmean) of the abdomen and gut region. The region of interest was selected due to low uptake in abdomen/gut during imaging. After imaging the 2-hour time point, mice organs were harvested for biodistribution […]
# (§8) For blocking CCK2R binding a solution of N-[(3R)-2,3-Dihydro-1-[2-(2-methylphenyl)-2-oxoethyl]-2-oxo-5-phenyl-1H-1,4-benzodiazepin-3-yl]-N′-(3-methylphenyl)-urea (YM022; Sigma Aldrich) was used. YM022 (75µL of a 1 mg/ml solution constituting DMSO:Tween 80: water, 2:2:6 v/v/v) was added to the respective 68Ga labelled tracer (1.41–3.61 MBq, 100 µL, 13.7–14.2 pmoles) and this mixture ([…]) was administered in three mice intravenously via tail vein injection and organs harvested at 1 hour post injection for biodistribution analysis, as above.
# (§9) All animal experiments were performed with the approval of the Peter MacCallum Cancer Centre Animal Experimentation Ethics Committee and in accordance with the Australian code for the care and use of animals for scientific purposes, 8th Edition, 2013 (AEEC Approval
# [4] = format: physicochemical
# Description: Lipophilicity, expressed as the octanol-water partition coefficient, constitutes an important property in drug action, influencing both pharmacokinetic and pharmacodynamics processes. The distribution coefficient (LogD7.4) of [^68Ga]Ga-DOTA-peptides was determined by measuring radioactivity distribution in the aqueous phase (phosphate buffer pH7.4) and the organic phase (n-octanol). […]
# To determine the distribution coefficient (logD 7.4), 68Ga radiolabeled peptides [68Ga]Ga-DOTA-GA4, [68Ga]Ga-DOTA-GA7, and [68Ga]Ga-DOTA-GA11–GA13 were diluted to approximately 20 pmol/mL in PBS (pH 7.4) and an equal volume of n-octanol was added. The mixture was vortexed vigorously for 10 cycles of 1 min at room temperature before being centrifuged for 6 min to separate the two phases. Equal volumes from each phase were aliquoted into individual counting tubes and analysed for 1 min using the Perkin Elmer 2480 Wizard2™ gamma counter (PerkinElmer, Massachusetts, USA). The distribution coefficient was calculated using the following equation LogD = […]. […]
# [5] = in vivo; settings: female, NSG, mouse, iv, total radioactivity; for SUV at 1 h / SUV at 2 h: SUVmax
# Description: as §1, §2, §3, §4, §5, §6, §7, §8, §9
# [6] = format: in vitro ADME, mouse
# Description: Metabolic stability is an important determinant of the efficacy of peptide radiopharmaceuticals and their progression as promising theranostic candidates. In vitro, metabolic degradation through hepatic and renal enzymes can be assessed by utilizing liver and kidney tissue homogenates. Radiolabeled peptides [^68Ga]Ga-DOTA-GA4, and D-Ala substituted variants [^68Ga]Ga-DOTA-GA7, [^68Ga]Ga-DOTA-GA11-GA13 were incubated in liver and kidney mouse homogenates, in human serum at 37°C, and in HEPES buffer (pH 7.4) as a negative control. Following a time course experiment, the metabolites were analyzed using HPLC to quantify the % breakdown of the respective parent peptide. […]
# To assess the stability of 68Ga radiolabeled peptides against enzymatic degradation, duplicate samples (750-900 pmol/mL, 2-5MBq) were incubated at 37 ℃ with pooled human serum, 15% […]
# mouse kidney homogenate, 30% mouse liver homogenate or 20 mM HEPES, pH 7.3 (control).
# Human blood was collected, and serum prepared using SSTII advance vacutainer tubes according to the manufacturer’s instructions (Becton Dickinson, New Jersey, USA). Mouse kidney and liver homogenates were prepared by washing the tissues in ice-cold HEPES buffer, pH 7.3 and placing them in pre-chilled tubes containing HEPES buffer and 2.38 mm metal beads (Mo-Bio Laboratories, Hilden, Germany). Tissues were homogenised using the PowerLyzer24 homogeniser (Qiagen, Hilden, Germany) according to the manufacturer’s instructions. 68Ga radiolabeled peptides were then incubated with the various lysates at 37 ℃ and samples were collected at 15, 30, 60 and 90 min. Reactions were terminated by addition of an equal volume of acetonitrile and centrifugation for 2 min at 15,000 rpm. Supernatants were diluted in water before being analysed by HPLC using a Kinetex C18 XB column (5µm
# [7] = 3 mg/kg, Uptake in A431-CCK2R Tumors, 1 hr Blocked
# [8] = Uptake in A431-CCK2R Tumors, 1 hr
Structure (SMILES),"tissue uptake at 1 h [3, 7] [%ID/g]","tissue uptake at 1 h [3, 8] [%ID/g]",tissue uptake at 2.5 h ([3]; Uptake in A431-CCK2R Tumors) [%ID/g],tissue uptake at 1 h ([3]; Uptake in Organs: Blood) [%ID/g],tissue uptake at 1 h ([3]; Uptake in Organs: Heart) [%ID/g],tissue uptake at 1 h ([3]; Uptake in Organs: Kidneys) [%ID/g],tissue uptake at 1 h ([3]; Uptake in Organs: Liver) [%ID/g],tissue uptake at 1 h ([3]; Uptake in Organs: Lungs) [%ID/g],tissue uptake at 1 h ([3]; Uptake in Organs: Muscle) [%ID/g],tissue uptake at 1 h ([3]; Uptake in Organs: Spleen) [%ID/g],tissue uptake at 1 h ([3]; Uptake in Organs: Stomach) [%ID/g],logD [4],tissue to tissue ratio at 1 h [5],SUV at 1 h [5] [SUV],SUV at 2 h [5] [SUV],further results
"CCCC[C@@H](C(=O)N[C@@H](CC(=O)O)C(=O)N[C@@H](Cc1cccc2ccccc12)C(N)=O)N(C)C(=O)[C@H](Cc1c[nH]c2ccccc12)NC(=O)CN(C)C(=O)[C@H](Cc1ccc(O)cc1)NC(=O)[C@H](C)NC(=O)[C@@H](CCC(=O)O)NC(=O)[C@@H](CCC(=O)O)NC(=O)[C@@H](CCC(=O)O)NC(=O)[C@@H](CCC(=O)O)NC(=O)[C@@H](CCC(=O)O)NC(=O)[C@H](N)CCC(=O)O [GA1, [D-Glu]6-Ala-Tyr-NMeGly-Trp-NMeNle-Asp-Nal-NH2] (H-[dE][dE][dE][dE][dE][dE]AY[Sar]W[NMeNle]D[1Nal]-NH2)",,,,,,,,,,,,,,,,"affinity to the CCK2R target ([1]; previously investigated): sub-nanomolar; IC50 ([1]; previously shown, Ga-DOTA-GA1 form, read-out: binding affinity (IC50) against CCK2R): 0.05 nM; fold decrease in affinity for CCK2R without gallium coordinated DOTA at the N-terminus [2]: 5 fold"
"CCCC[C@@H](C(=O)N[C@@H](CC(=O)O)C(=O)N(C)[C@@H](Cc1ccccc1)C(N)=O)N(C)C(=O)[C@H](Cc1c[nH]c2ccccc12)NC(=O)CN(C)C(=O)[C@H](Cc1ccc(O)cc1)NC(=O)[C@H](C)NC(=O)[C@@H](CCC(=O)O)NC(=O)[C@@H](CCC(=O)O)NC(=O)[C@@H](CCC(=O)O)NC(=O)[C@@H](C)NC(=O)[C@@H](CCC(=O)O)NC(=O)[C@@H](CCC(=O)O)NC(=O)CN1CCN(CC(=O)O)CCN(CC(=O)O)CCN(CC(=O)O)CC1 [[^68Ga]Ga-DOTA-GA11, metal not drawn] ({DOTA}-[dE][dE][dA][dE][dE][dE]AY[Sar]W[NMeNle]D[NMeF]-NH2)",2.07 ± 0.15,5.6 ± 1.16,5.42 ± 0.7,0.46 ± 0.08,0.27 ± 0.08,7.38 ± 1.54,0.29 ± 0.01,0.59 ± 0.02,0.09 ± 0.02,0.34 ± 0.08,1.04 ± 0.06,-3.56 ± 0.01,14.4 ± 2.23,0.39,0.34,metabolites in kidney homogenates [6]: no observable metabolites detected; metabolites in liver homogenates [6]: no observable metabolites detected
"CCCC[C@@H](C(=O)N[C@@H](CC(=O)O)C(=O)N[C@@H](Cc1ccccc1)C(N)=O)N(C)C(=O)[C@H](Cc1c[nH]c2ccccc12)NC(=O)CN(C)C(=O)[C@H](Cc1ccc(O)cc1)NC(=O)[C@H](C)NC(=O)[C@@H](CCC(=O)O)NC(=O)[C@@H](CCC(=O)O)NC(=O)[C@@H](CCC(=O)O)NC(=O)[C@@H](C)NC(=O)[C@@H](CCC(=O)O)NC(=O)[C@@H](CCC(=O)O)NC(=O)CN1CCN(CC(=O)O)CCN(CC(=O)O)CCN(CC(=O)O)CC1 [[^68Ga]Ga-DOTA-GA12, metal not drawn] ({DOTA}-[dE][dE][dA][dE][dE][dE]AY[Sar]W[NMeNle]DF-NH2)",2.53 ± 0.11,6.7 ± 0.69,6.81 ± 1.4,0.29 ± 0.01,0.14 ± 0.01,4.52 ± 0.38,0.19 ± 0.02,0.34 ± 0.04,0.09 ± 0.02,0.25 ± 0.04,1.38 ± 0.08,-4.06 ± 0.14,24.9 ± 4.57,0.5,0.45,"Half-life (t1/2) in Kidney Homogenate ([6]; mouse, tissue homogenate): 46.33 min; Half-life (t1/2) in Liver Homogenate ([6]; mouse, tissue homogenate): 64.28 min; half-life ([6]; mouse, tissue homogenate, Half-life (t1/2) in Kidney Homogenate): 46.3 min; half-life ([6]; mouse, tissue homogenate, Half-life (t1/2) in Liver Homogenate): 64.3 min"
